Laboratory results taken from PubChem BioAssay (NCI).
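These data come from cells grown in 96-well plates and exposed to compound for 48 hours at five concentrations. Here, GI50 denotes the concentration required for 50% inhibition of growth. TGI marks complete inhibition of growth.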

Key:
Assay in all cases: inhibition of tumour cell growth, NCI panel, 48 h
[1] = test system: 786-0 renal
[2] = test system: A498 renal
[3] = test system: A549 NSCLC
[4] = test system: ACHN renal
[5] = test system: BT-549 breast
[6] = test system: CAKI-1 renal
[7] = test system: CCRF-CEM leukemia
[8] = test system: COLO 205 colon
[9] = test system: DU-145 prostate
[10] = test system: EKVX NSCLC
[11] = test system: HCC-2998 colon
[12] = test system: HCT-116 colon
[13] = test system: HCT-15 colon
[14] = test system: HL-60(TB) leukemia
[15] = test system: HOP-62 NSCLC
[16] = test system: HS 578T breast
[17] = test system: HT29 colon
[18] = test system: IGROV1 ovarian
[19] = test system: K-562 leukemia
[20] = test system: KM12 colon
[21] = test system: LOX IMVI melanoma
[22] = test system: M14 melanoma
[23] = test system: MALME-3M melanoma
[24] = test system: MCF7 breast
[25] = test system: MDA-MB-231 breast
[26] = test system: MDA-MB-435
[27] = test system: MDA-N
[28] = test system: MOLT-4 leukemia
[29] = test system: NCI-H226 lung
[30] = test system: NCI-H23 lung
[31] = test system: NCI-H460 lung
[32] = test system: NCI-H522 lung
[33] = test system: NCI/ADR-RES ovarian
[34] = test system: OVCAR-3 ovarian
[35] = test system: OVCAR-4 ovarian
[36] = test system: OVCAR-5 ovarian
[37] = test system: OVCAR-8 ovarian
[38] = test system: PC-3 prostate
[39] = test system: RPMI-8226 leukemia
[40] = test system: RXF 393 renal
[41] = test system: SF-268 CNS
[42] = test system: SF-295 CNS
[43] = test system: SF-539 CNS
[44] = test system: SK-MEL-2 melanoma
[45] = test system: SK-MEL-28 melanoma
[46] = test system: SK-MEL-5 melanoma
[47] = test system: SK-OV-3 ovarian
[48] = test system: SN12C renal
[49] = test system: SNB-19 CNS
[50] = test system: SNB-75 CNS
[51] = test system: SR leukemia
[52] = test system: SW-620 colon
[53] = test system: T-47D breast
[54] = test system: TK-10 renal
[55] = test system: U251 CNS
[56] = test system: UACC-257 melanoma
[57] = test system: UACC-62 melanoma
[58] = test system: UO-31 renal
[59] = test system: HOP-92 NSCLC

`CCN1CCC(O)(c2ccc([N+](=O)[O-])cc2)C(C(=O)c2ccc([N+](=O)[O-])cc2)C1` (configuration not stated) was tested, and the TGI [1] was 29.9 µM, the TGI [2] was 46.2 µM and the TGI [3] was > 100 µM. It also gave a TGI [4] of 32 µM, a TGI [5] of 30.8 µM and a TGI [6] of 41.2 µM. For the same compound, the TGI [7] was > 100 µM, the TGI [8] was 28.1 µM and the TGI [9] was 32.3 µM. It also gave a TGI [10] of 37.6 µM, a TGI [11] of 32.8 µM and a TGI [12] of 32.6 µM. The TGI [13] was 52.9 µM, the TGI [14] was > 100 µM and the TGI [15] was > 100 µM. For the same compound, the TGI [16] was 61.7 µM, the TGI [17] was > 100 µM and the TGI [18] was 35.5 µM. The TGI [19] was > 100 µM, the TGI [20] was 32.1 µM and the TGI [21] was 38.6 µM. The TGI [22] was 42.1 µM, the TGI [23] was 48.6 µM and the TGI [24] was 31.4 µM. It also gave a TGI [25] of 41.9 µM, a TGI [26] of 43.5 µM and a TGI [27] of 39.1 µM. For the same compound, the TGI [28] was 58 µM, the TGI [29] was 61.3 µM and the TGI [30] was 36.4 µM. The TGI [31] was 48.7 µM, the TGI [32] was 15.1 µM and the TGI [33] was > 100 µM. The TGI [34] was 31.5 µM, the TGI [35] was 83.9 µM and the TGI [36] was > 100 µM. For the same compound, the TGI [37] was 81.9 µM, the TGI [38] was > 100 µM and the TGI [39] was 17.8 µM. For the same compound, the TGI [40] was 30 µM, the TGI [41] was 46 µM and the TGI [42] was > 100 µM. For the same compound, the TGI [43] was 30.7 µM, the TGI [44] was > 100 µM and the TGI [45] was 33.5 µM. The TGI [46] was 35.7 µM, the TGI [47] was > 100 µM and the TGI [48] was 38.8 µM. The TGI [49] was > 100 µM, the TGI [50] was > 100 µM and the TGI [51] was > 100 µM. The TGI [52] was > 100 µM, the TGI [53] was 46.4 µM and the TGI [54] was 32.4 µM. The TGI [55] was > 100 µM, the TGI [56] was 33.7 µM and the TGI [57] was 33 µM. For the same compound, the TGI [58] was 36.8 µM.
With `OCC1CC[N-]CC1.OCC1CC[N-]CC1.[Cl][Pt+2]([Cl])([Cl])[Cl]` the GI50 [1] was 34.9 µM, the GI50 [2] was 95.3 µM and the GI50 [3] was 52.7 µM. The GI50 [4] was 38.8 µM, the GI50 [5] was 27 µM and the GI50 [6] was 20.3 µM. The TGI [6] was 81.5 µM, the GI50 [8] was 29.3 µM and the GI50 [9] was 20.8 µM. The TGI [9] was 61.5 µM, the GI50 [10] was 30.7 µM and the GI50 [11] was 35.4 µM. For the same compound, the GI50 [12] was 25.6 µM, the TGI [12] was 86.5 µM and the GI50 [13] was 27.8 µM. The GI50 [15] was 33.1 µM, the GI50 [59] was 34.2 µM and the TGI [59] was 87 µM. For the same compound, the GI50 [16] was 45.8 µM, the GI50 [17] was 17.1 µM and the TGI [17] was 51.7 µM. The GI50 [18] was 25.2 µM, the GI50 [19] was 35.9 µM and the GI50 [20] was 28.9 µM. For the same compound, the TGI [20] was 77.3 µM, the GI50 [21] was 11.4 µM and the GI50 [22] was 22.2 µM. For the same compound, the TGI [22] was 65 µM, the GI50 [23] was 36.4 µM and the GI50 [24] was 26.2 µM. The GI50 [25] was 33.6 µM, the GI50 [26] was 24.4 µM and the TGI [26] was 64.9 µM. The GI50 [27] was 28.9 µM, the GI50 [29] was 39.5 µM and the GI50 [30] was 28.6 µM. It also gave a GI50 [31] of 27.9 µM, a TGI [31] of 95.7 µM and a GI50 [32] of 9.53 µM. It also gave a TGI [32] of 46.3 µM, a GI50 [33] of 33.8 µM and a GI50 [34] of 45.9 µM. The GI50 [35] was 42.5 µM, the GI50 [36] was 22.7 µM and the TGI [36] was 51.5 µM. For the same compound, the GI50 [37] was 31.1 µM, the TGI [38] was 73 µM and the GI50 [39] was 15.2 µM. It also gave a TGI [39] of 53.1 µM, a GI50 [41] of 40.5 µM and a GI50 [43] of 41.9 µM. For the same compound, the GI50 [44] was 27 µM, the TGI [44] was 67.3 µM and the GI50 [45] was 60 µM. For the same compound, the GI50 [46] was 34.5 µM, the GI50 [47] was 36.9 µM and the GI50 [48] was 30.8 µM. For the same compound, the GI50 [49] was 48 µM, the GI50 [51] was 8.08 µM and the GI50 [52] was 23 µM. For the same compound, the GI50 [53] was 15.2 µM, the TGI [53] was 58.1 µM and the GI50 [54] was 37.3 µM. For the same compound, the GI50 [55] was 19.6 µM, the TGI [55] was 53 µM and the GI50 [56] was 31 µM. The GI50 [57] was 29.4 µM, the GI50 [58] was 31.2 µM and the TGI [58] was 89.9 µM.
In the case of `CCN1/C(=C/C#C/C(C)=C\c2sc3ccc(Cl)cc3[n+]2CC)Sc2ccc(Cl)cc21`, the TGI [1] is reported as 15.1 µM, the TGI [3] is reported as 22 µM and the TGI [4] is reported as 14.8 µM. For the same compound, the TGI [5] was 6 µM, the TGI [6] was 7.13 µM and the TGI [7] was > 100 µM. For the same compound, the TGI [8] was 3.21 µM, the TGI [9] was 15.5 µM and the TGI [10] was 20.8 µM. The TGI [11] was 17.6 µM, the TGI [12] was 12.3 µM and the TGI [13] was > 100 µM. It also gave a TGI [15] of 29 µM, a TGI [59] of 5.52 µM and a TGI [16] of 28.8 µM. The TGI [17] was 14 µM, the TGI [18] was 14.5 µM and the TGI [20] was 19.4 µM. The TGI [21] was 14.6 µM, the TGI [22] was 16.1 µM and the TGI [23] was 6.84 µM. For the same compound, the TGI [24] was 15.3 µM, the TGI [25] was 19.7 µM and the TGI [26] was 13.7 µM. The TGI [27] was 12.9 µM, the TGI [29] was 21.9 µM and the TGI [31] was > 100 µM. For the same compound, the TGI [32] was 6.02 µM, the TGI [33] was 80.4 µM and the TGI [35] was > 100 µM. The TGI [36] was 21.3 µM, the TGI [37] was 17 µM and the TGI [38] was 9.11 µM. For the same compound, the TGI [40] was 21.3 µM, the TGI [41] was 21.4 µM and the TGI [42] was 14.9 µM. The TGI [43] was 16.1 µM, the TGI [44] was 4.85 µM and the TGI [45] was 26.5 µM. It also gave a TGI [46] of 5.26 µM, a TGI [47] of 22 µM and a TGI [48] of 16.1 µM. For the same compound, the TGI [49] was 18.9 µM, the TGI [50] was 9.98 µM and the TGI [51] was > 100 µM. For the same compound, the TGI [53] was 17.6 µM, the TGI [54] was > 100 µM and the TGI [55] was 23.2 µM. The TGI [56] was 22 µM, the TGI [57] was 13.6 µM and the TGI [58] was 14.5 µM.
`CCCCCC/C=C\CCCCCCCCC(=O)c1cccc(OC)c1OC` was tested, and the TGI [1] was > 100 µM, the TGI [2] was > 100 µM and the TGI [3] was > 100 µM. The TGI [4] was > 100 µM, the TGI [5] was > 100 µM and the TGI [6] was > 100 µM. The TGI [7] was > 100 µM, the TGI [8] was > 100 µM and the TGI [9] was > 100 µM. The TGI [10] was > 100 µM, the TGI [11] was > 100 µM and the TGI [12] was > 100 µM. The TGI [13] was > 100 µM, the TGI [14] was 69.9 µM and the TGI [15] was > 100 µM. The TGI [16] was > 100 µM, the TGI [17] was > 100 µM and the TGI [18] was > 100 µM. The TGI [19] was > 100 µM, the TGI [20] was > 100 µM and the TGI [21] was 32.9 µM. For the same compound, the TGI [22] was > 100 µM, the TGI [23] was > 100 µM and the TGI [25] was > 100 µM. For the same compound, the TGI [26] was > 100 µM, the TGI [27] was > 100 µM and the TGI [28] was > 100 µM. The TGI [29] was > 100 µM, the TGI [30] was > 100 µM and the TGI [32] was > 100 µM. For the same compound, the TGI [33] was > 100 µM, the TGI [36] was > 100 µM and the TGI [37] was > 100 µM. The TGI [38] was > 100 µM, the TGI [39] was > 100 µM and the TGI [40] was 68.3 µM. The TGI [41] was > 100 µM, the TGI [42] was > 100 µM and the TGI [43] was > 100 µM. The TGI [44] was > 100 µM, the TGI [45] was > 100 µM and the TGI [46] was 60.9 µM. The TGI [47] was > 100 µM, the TGI [48] was > 100 µM and the TGI [49] was > 100 µM. For the same compound, the TGI [50] was > 100 µM, the TGI [51] was > 100 µM and the TGI [52] was > 100 µM. For the same compound, the TGI [53] was > 100 µM, the TGI [54] was > 100 µM and the TGI [55] was > 100 µM. The TGI [56] was > 100 µM, the TGI [57] was > 100 µM and the TGI [58] was > 100 µM.
